# Data from publication PMC3365588 (Structure(London, England:1993), 2009).
# Columns and labels:
# HIV-1 RT [1] = biological target: T1, HIV-1 RT (Human immunodeficiency virus type 1 group M subtype B, UniProt P03366); assay: Direct binding assay using intrinsic protein fluorescence; details: KD^fluor
# HIV-1 RT [2] = biological target: T1, HIV-1 RT; assay: Direct binding assay using surface plasmon resonance; details: for Kd: KD^SPR
# HIV-1 integrase = assay: Inhibition of HIV-1 integrase; type: biochemical; details: data not shown
# RNH activity of HIV-1 = details: read-out: IC50, inhibition of RNH activity; previously reported; cited from earlier work
# E. coli RNase H = details: cited from earlier work
# [3] = system: RNase H cleavage by HIV-1 RT; details: cited from earlier work
# [4] = system: HIV-1 RT with benzoyl-L-phenylalanine in place of Tyr501; details: cited from earlier work
# [5] = Enzyme + MgCl2, free enzyme (no substrate)
SMILES,Kd (HIV-1 RT [1]; Enzyme + MgCl2 + ds RNA (non-hydrolyzable substrate analog)) [µM],Kd (HIV-1 RT [1]; [5]) [µM],IC50 (HIV-1 RT [2]) [µM],Kd (HIV-1 RT [2]; [5]) [µM],"Kd (HIV-1 RT [2]; Enzyme, no metal (MgCl2 omitted, EDTA added)) [µM]","Fold difference of IC50, RNH of HIV-1 RT vs HIV-1 integrase (HIV-1 integrase)",IC50 (RNH activity of HIV-1) [µM],"Fold difference of IC50, RNH of HIV-1 RT vs E. coli RNase H (E. coli RNase H) [fold]",Inhibition of polymerase-independent secondary cuts in the RNA strand [3],"Inhibition of RNase H cleavage with pre-formed Enzyme·Substrate complex ([3]; pre-steady state conditions, ref Bielhartz et al)",Inhibition of polymerase dependent cleavage ([3]; ref Bielhartz et al),Effect of substituting benzoyl-L-phenylalanine for Tyr501 on inhibition [4]
"CC(C)c1ccc(O)c(=O)c(O)c1 [β-thujaplicinol, 2,7-dihydroxy-4-(propan-2-yl)-cyclohepta-2,4,6-trien-1-one]",0.185 ± 0.008,1,> 100,6 ± 1,> 100,over 10 fold,0.21,~300,inhibits polymerase-independent “secondary cuts”,unable to inhibit RNase H cleavage,not an inhibitor of polymerase dependent cleavage,conferred resistance to inhibition
CC(C)c1ccccc(=O)c1O [α-thujaplicin],,,,,,,50,,,,,
